Consider one sequence from US20170000866A1, “METHOD FOR EMULSIFYING A TRIEPITOPE PEPTIDE WITH MONTANIDE AND KITS FOR PERFORMING THE SAME” (VAXON BIOTECH, priority 2013, published 2017).

A short description of the series: Vx006 solubilisation in solvents for injection. The series is classed as physicochemical. The conditions noted are these: in water for injection. The procedure: For vaccinating a patient, 1 ml of solvent is added on the lyocake to resuspend the peptide, 0.7 ml of peptide in solution is then loaded in a silicone free syringe and 0.7 ml of MONTANIDE ISA51VG in a second syringe. Both syringes are then connected to the I-connector for the emulsification protocol.
According to SEPPIC recommendations, to the fact that the emulsion is performed for human administration (preventing the use of solvents as DMSO etc.), results presented in Example 1 above and solubility prediction, Vx006 was initially diluted in saline buffer. Two saline solvents were tested, NaCl 0.9% and PBS. […] Moreover, the addition of several solvents developed by Seppic and compatible with injection in humans and emulsion with MONTANIDE were tested during the Vx006 manufacturing development.
The vial can be gently agitated to accelerate the dissolution, if necessary. The dissolution can also be performed at cold temperature (0-10° C.).

Ends that are not written are not given here.

As for YLQVNSLQTVYLEYRQVPVYLEEITGYL [Vx006], the Solubility entry is recorded as “perfectly soluble” and the “pH of the solubilised peptide” value is reported as “around 7”.
